According to ChEMBL document CHEMBL2311407, “Design and synthesis of diazatricyclodecane agonists of the G-protein-coupled receptor 119” (J Med Chem, 2013):
In brackets after ≈: the same amount, converted by molar mass.

What was measured:
[1] = Aqueous solubility of the compound in PBS at pH 1.2; format: physicochemical
[2] = Aqueous solubility of the compound in PBS at pH 7.4; format: physicochemical
[3] = Apparent intrinsic clearance in human liver microsomes; format: ADME, Microsome; details: read-out: CLH(app)

solubility [1]	solubility [2]	CLint scaled [3]	SMILES
6800 µg/mL (≈ 15.6 mM)	0.5 µg/mL (≈ 0.00115 mM)		Cc1ncccc1Oc1ncnc(N2C3CC4CC2CC(C3)N4C(=O)OC2(C)CC2)c1C
		> 30 mL/min/kg	Cc1ncccc1Oc1ncnc(N2C3CC4CC2CC(C3)N4C(=O)OCC(C)C)c1C
